Test results published in patent publication US10858360B2, “Tricyclic gyrase inhibitors” (priority 2011, dated 2020).
Converted amounts (≈) assume the structure as drawn.

Assays:
Type in all cases: cell-based
[1] = tested on: S. aureus ATCC 13709; test: MIC, S. aureus ATCC 13709 (Alamar Blue broth microdilution)
[2] = tested on: F. tularensis holarctica LVS; test: microbe, parasite or virus in culture; conditions: Ft = F. tularensis; strain not given
[3] = tested on: Y. pestis CO92 pgm-; test: microbe, parasite or virus in culture; conditions: Yp = Y. pestis
[4] = tested on: B. thailandensis ATCC E264; test: microbe, parasite or virus in culture
[5] = tested on: S. pneumoniae ATCC 51916; test: MIC, S. pneumoniae ATCC 51916
[6] = tested on: P. aeruginosa ATCC 15692; test: MIC, P. aeruginosa ATCC 15692
[7] = tested on: A. baumannii ATCC 19606; test: MIC, A. baumannii ATCC 19606; conditions: strain not given
[8] = tested on: K. pneumoniae ATCC 700603; test: MIC, K. pneumoniae ATCC 700603; conditions: Kpn = K. pneumoniae
[9] = tested on: E. coli ATCC 25922; test: MIC, E. coli ATCC 25922
[10] = S. aureus, Alamar Blue read after overnight incubation at 35° C.
[11] = E. coli, Alamar Blue read after overnight incubation at 35° C.

SMILES | MIC Sa [1, 10] [µg/mL] | MIC Sa ([1]; Sa = S. aureus) [µg/mL] | MIC Ft [2] [µg/mL] | MIC Yp [3] [µg/mL] | MIC Bt [4] [µg/mL] | MIC Spn [5] [µg/mL] | MIC Pa [6] [µg/mL] | MIC Ab [7] [µg/mL] | MIC Kpn [8] [µg/mL] | MIC Ec [9, 11] [µg/mL] | MIC Ec ([9]; Ec = E. coli, strain not given) [µg/mL]
CNc1cc(F)cc2c1[nH]c1nc(Oc3cnc(C)nc3)nc(N3CC4CC3C[C@@H]4N)c12 (some centres unmarked) [4.131] | ≤0.5 | ≤0.5 | ≤0.5 | ≤0.5 | ≤0.5 | ≤0.5 | 1 (≈ 2.3 µM) | ≤0.5 | 2 (≈ 4.6 µM) | ≤0.5 | ≤0.5
CNc1cc(F)cc2c1[nH]c1nc(Oc3ccc4cncnc4c3)nc(N3CC4CC(N)C4C3)c12 (centres unmarked) [4.365] | ≤0.5 | ≤0.5 | 1 (≈ 2.13 µM) | ≤0.5 | ≤0.5 | ≤0.5 | 1 (≈ 2.13 µM) | ≤0.5 | 4 (≈ 8.5 µM) | ≤0.5 | ≤0.5
CNc1cc(F)cc2c1[nH]c1nc(Oc3cnc(C)nc3)nc(N3CC4CCCNC4C3)c12 (centres unmarked) [4.079] | ≤0.5 | ≤0.5 | 4 (≈ 8.92 µM) | ≤0.5 | 1 (≈ 2.23 µM) | ≤0.5 | 4 (≈ 8.92 µM) | ≤0.5 | 8 (≈ 17.8 µM) | ≤0.5 | ≤0.5
CNc1cc(F)cc2c1[nH]c1nc(Oc3cnc(C)nc3)nc(N3CC4CC(N)C4C3)c12 (centres unmarked) [4.084] | ≤0.5 | ≤0.5 | ≤0.5 | ≤0.5 | ≤0.5 | ≤0.5 | 1 (≈ 2.3 µM) | ≤0.5 | 4 (≈ 9.21 µM) | ≤0.5 | ≤0.5
